Columns and labels:
[1] = system: Striga hermonthica seeds; conditions: 10^-8 M concentrations; cited from earlier work
[2] = system: Seeds of O. cumana; assay: Germination triggering of parasitic weed seeds; format: in vivo; conditions: 48 hours post-treatment; AB01 compared with 5-dS
Protocol: Seeds of O. cumana were primed by incubation on glass fiber filters in darkness at room temperature for 3 days. Specified concentrations of AB01 or 5-dS were applied and seeds were monitored at 48 hours post-treatment. Germination was evident by appearance of haustoria. Experiments were performed in triplicate.

[3] = system: Striga; assay: Field trial in Striga infested fields, Siaya County, Kenya; format: in vivo; conditions: 1 gram per acre sprayed 1 week prior to planting
Protocol: Field trial was performed from August 2013 to January 2014 in Siaya County, Kenya. AB01 treated plots were sprayed with a 1 gram per acre dose 1 week prior to planting. Treatment was accomplished by resuspending solid AB01 in 1 mL of acetone, and diluting in 4000 L of water. 3 replicate treated and untreated plots (100 m2 each) were performed. […] (C) The biomass of Striga from each plot was collected and measured after harvest.

[4] = system: A. thaliana mutants lacking MAXI cytochrome P450 activity; assay: Complementation of Arabidopsis mutant deficient in strigolactone biosynthesis; format: in vivo, Arabidopsis thaliana; conditions: 1 uM as an irrigation supplement
Protocol: To further validate the bioactivity of AB01 we tested whether the compound could complement mutants of the model plant Arabidopsis thaliana that are deficient in strigolactone biosynthesis. […] We grew MAXI A. thaliana under standard conditions and added 1 uM AB01 as an irrigation supplement, or a mock treatment. […] Thus, the synthetic AB01 is sufficiently similar to strigolactone to both to trigger Striga germination as well as substitute for the natural compound in a model plant.

[5] = system: cut flowers; assay: Vase life extension of cut flowers; format: in vivo
Protocol: This example determines the effect of the application of a plant propagation material comprising strigolactone or analogs or mimics thereof on the onset of water-stress symptoms in cut flowers during storage, shipping, and/or life in retail or consumer environment. We test a wide range of concentrations to focus our investigations of the effects of the plant propagation material on cut flowers. Indicators of water-limitation stress in flowers are measured (approximately daily). We take cut flowers, apply a plant propagation material in irrigation water, and place in a normal storage environment (e.g., regular day-night cycles, room temperature). The concentration of the strigolactone or analog or mimic thereof in the plant propagation material spanned a concentration range from 1 gram per liter to 1 picogram per liter. We then monitor plants daily for the presence of water stress indicators and shelf life, such as flower and leaf rolling (wilting), turgor of stems, chlorophyll content, and loss of petals.
Various concentrations of the strigolactone mimic were added to the irrigation water of the cut flowers. The vase life for cut flowers treated with water-only was approximately 4 days, whereas the vase life for the cut flowers treated with the plant propagation material was approximately 6-7 days.

[6] = system: Seeds of Striga asiatica; assay: Triggering Striga germination (seed germination bioassay); format: in vivo; conditions: for bioactivity: induction of Striga germination (in words): radicle emergence from seeds
Protocol: (B) Bioactivity of synthetic SL. Seeds of Striga asiatica were exposed to SL (right) or a mock treatment (left). […] (C) Synthetic biological pathway for the production of SL in yeast, consisting of enzymes of plant and microbial origin. We tested the ability of AB01 to trigger the germination of Striga seeds. Seeds of Striga asiatica were conditioned by incubation in the dark at 30 degrees for 7 days, and dilutions of the AB01 material in water were applied. We observed that concentrations of 1 nanogram per liter and greater were able to trigger germination of approximately 30% of the seeds, which is similar to published efficiencies and activity for plant-derived strigolactone (FIG. 1A-B).

[7] = system: Alfalfa; assay: Salinity tolerance in alfalfa seedlings; format: in vivo; conditions: 1 mg/mL; irrigated every 48 hours with 35 g/L NaCl; after 5 days
Protocol: Alfalfa was grown from seeds for 14 days. Seedlings were treated with 1 mg/mL AB01 or mock treated. After treatment, plants were irrigated with 100 mL water containing 35 g/L dissolved salt (NaCl). Irrigation was performed every 48 hours and plants monitored for symptoms of salinity stress.

[8] = system: corn (Dekalb hybrid 68-05); assay: Corn field trial, Hays County, Tex., not irrigated; format: in vivo
Protocol: Field trial was performed from April to July 2014 in Hays County, Tex. Dekalb hybrid 68-05 was planted at a density of 25,000 plants per acre (30″rows with 8″spacing). The field was top-dressed with 80 lbs/ac nitrogen. The field was not irrigated. AB01 treated plots were sprayed with a 2 gram per acre dose at the tasseling (VT) stage. Spraying was accomplished by resuspending solid AB01 in 0.5 mL of acetone, and diluting in water for a spray volume of 1 gallon per 500 square feet. Experiments were performed in triplicate […] The fraction of fertilized ears was measured by visual inspection of the ear silk at the R2-R3 stage. Unfertilized silks that appear yellow/green, while fertilized silks appear reddish brown. Completely unfertilized ears have silks that are completely yellow/green, fertilized ears appear brown, while ears with an incomplete degree of fertilized silks have a mixed population of silks. […] Ears were visually inspected at harvest to monitor kernel set (the number of fully formed kernels in the mature ear). […] Ears volume was measured in the field at the R3 stage to calculate ear volume. The length and circumference of each ear was measure, and volume was calculated by treating the ear as a cylinder. Approximately 100 ears from each plot were measured. […] After harvest, ears were shelled and kernels counted and weighed to quantitate the ‘thousand kernel weight’ (TKW), or average mass of kernels in the trial. AB01 treated plots yielded kernels averaging 30% higher mass than control plots. Ears from control and treated plots were harvested, shelled, and moisture tested to quantitate dry mass. Control plots averaged 120 bushels per acre, while AB01 treated plots averaged 143 bushels per acre, a 19% increase. Grain yield is calculated at 15% moisture, a standard measure of harvest output.

[9] = system: Wheat; assay: Drought tolerance in greenhouse wheat; format: in vivo; conditions: 1 mg in 100 mL water; irrigation stopped; 7 days post treatment
Protocol: Wheat was grown in greenhouse conditions from seed for 6 weeks with adequate irrigation. Plants were treated with 1 mg of AB01 resuspended in acetone and diluted in 100 mL water, or mock treated as a control. Irrigation was stopped and plants monitored for symptoms of drought stress.

[10] = system: Dekalb 67-86 RR corn seedlings; assay: Acute water stress in corn seedlings (leaf rolling score); format: in vivo; conditions: 40 mL of 0.1 mM or 1.0 mM; 6th day without irrigation
Protocol: Corn seedlings were scored as unstressed, moderately water stressed and severely water stressed as measured by visual inspection of leaf rolling, a response of corn to water stress. Dekalb 67-86 RR corn seeds were planted and then irrigated through 7 days after emergence in a greenhouse setting. Seedlings were then treated with 40 mL of water, 0.1 mM AB01 or 1.0 mM AB01 and irrigation ceased. On the 6th day without irrigation, seedlings were scored for water stress. Seedlings with open leaves were scored as unstressed; seedlings with partial leaf rolling were scored as moderately stressed; seedlings with completely rolled leaves were scored as severely stressed.

[11] = system: Alfalfa; assay: Drought tolerance in alfalfa seedlings; format: in vivo; conditions: 1 mg/mL; irrigation stopped; approximately 7 days post-treatment
Protocol: Alfalfa was grown from seeds for 14 days. Seedlings were treated with 1 mg/mL AB01 or mock treated. Irrigation was stopped after treatment and seedlings were monitored for symptoms of water limitation stress.

[12] = system: Tomato seedlings; assay: Salinity tolerance in tomato seedlings; format: in vivo; conditions: 10 mg/mL; 29.2 g/L NaCl irrigation 24 hours after treatment; 6 hours after salt irrigation
Protocol: Tomato seedlings were treated with 10 mg/mL AB01 or mock treated. 24 hours after treatment, they were irrigated with 250 mL water containing 29.2 g/L salt (NaCl).

Structure (SMILES): CC1=C[C@H](O/C=C2/C(=O)O[C@@H]3C4=C(C[C@H]23)C(O)CCC4(C)C)OC1=O (single isomer, unassigned; (+)) [(+)-strigol, (+)-Strigol]
- activity in germination studies of Striga hermonthica seeds [1]: 93%

Structure (SMILES): CC1=C[C@H](O/C=C2/C(=O)O[C@@H]3C4=C(CCCC4(C)C)CC23)OC1=O (stereo partly shown) [5-dS, 5-deoxystrigol, reference compound]
- germination triggering efficiency (appearance of haustoria) [2]: Significant differences in germination triggering efficiency

Structure (SMILES): CC1=CC(O/C=C2\C(=O)O[C@]3(C)CCC4C(C)(C)CCC[C@]4(C)[C@@H]23)OC1=O (stereo partly shown) [AB01]
- Striga emergence and Striga-related stress in plots [3]: few signs of Striga-related stress and parasite emergence
- biomass of Striga per plot after harvest [3]: significant reduction in the mass of Striga present
- count of emergent Striga per plot [3]: few parasites in treated plots
- increase of grain yields compared to untreated plots [3]: 25%
- impact on phenotype of strigolactone-deficient mutant [4]: visible impact on the phenotype of the mutant
- vase life of cut flowers ([5]; added to irrigation water, various concentrations, water-only approximately 4 days): 6 to 7 days
- vase life extension ([5]; versus water-only control): 50-60%
- fraction of Striga seeds triggered to germinate ([6]; at 1 nanogram per liter and greater): approximately 30%
- concentrations able to trigger germination of Striga seeds ([6]; dilutions in water, seeds conditioned in the dark at 30 degrees for 7 days): ≥ 1 nanogram per liter
- bioactivity: induction of Striga germination (in words) [6]: graded dose-response behavior
- bioactivity: induction of Striga germination (in words) ([6]; listed as Synthetic SL): potent bioactivity, with nanograms of material inducing germination of Striga seeds
- bioactivity: induction of Striga germination (in words) ([6]; listed as synthetic SL): displayed bioactivity
- bioactivity: induction of Striga germination (in words) ([6]; listed as synthetically produced SL): effective at germinating seeds of Striga asiatica
- symptoms of salinity stress (chlorosis, vigor) [7]: displayed significantly higher vigor
- increase of harvest grain yield over control plots ([8]; 2 gram per acre spray at VT): 19%
- average kernel mass (thousand kernel weight), higher than control plots ([8]; 2 gram per acre spray at VT, after harvest): 30%
- harvest grain yield ([8]; 2 gram per acre spray at VT, calculated at 15% moisture, control plots 120): 143 bushels per acre
- ear volume ([8]; 2 gram per acre spray at VT, measured at R3 stage, vs mock): significantly higher volumes
- kernel set at harvest ([8]; 2 gram per acre spray at VT, visual inspection, vs mock): more complete kernel set and few signs of kernel abortion
- fraction of fertilized / unfertilized ears ([8]; 2 gram per acre spray at tasseling (VT), ear silk inspected at R2-R3 stage, vs mock): decreased the fraction of unfertilized ears while increasing the fraction of fertilized ears
- symptoms of drought stress (wilting) [9]: appeared vigourous
- fraction of seedlings scored unstressed / severely water stressed [10]: decreased the fraction of severely stressed seedlings while increasing the fraction of unstressed seedlings in a dose-dependent manner
- germination triggering efficiency (appearance of haustoria) [2]: Significant differences in germination triggering efficiency
- appearance of seedlings under water limitation stress [11]: treated seedlings appeared robust
- symptoms of salinity shock (wilting) [12]: appeared unstressed

Structure (SMILES): CC1=CC(OC=C2C(=O)OC3C4=C(CC23)C(O)CCC4(C)C)OC1=O (stereo not drawn) [ent-strigol]
- activity in germination studies of Striga hermonthica seeds [1]: 22%
